Tested on: 361931-004-R-J1-PDC multicell spheroid viability
Assay: Anticancer human tumor 361931-004-R-J1-PDC patient-derived colon adenocarcinoma cell line growth inhibition [PI3K]
Settings: for IC50: curve of first compound; for viability, T/C: stronger effect = lower value
Summary of the method: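 Agents were dosed from a top concentration near clinical Cmax (otherwise 10 microM) in half-log decrements, alone or combined with PI3K inhibitors. The spheroids contain tumor cells plus endothelial (HUVEC) and MSC stroma; viability is measured.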

[1] = second compound 0.00316 µM, first compound 0.0316 µM
[2] = second compound 0.00316 µM, first compound 0.1 µM
[3] = second compound 0.01 µM, first compound 0.0316 µM
[4] = second compound 0.01 µM, first compound 0.1 µM
[5] = second compound 0.0316 µM, first compound 0.0316 µM
[6] = second compound 0.0316 µM, first compound 0.1 µM
[7] = second compound 0.0316 µM, first compound 0.316 µM
[8] = second compound 0.0316 µM, first compound 1 µM
[9] = second compound 0.0316 µM, first compound 3.16 µM
[10] = second compound 0.0316 µM, first compound 10 µM
[11] = second compound 0.1 µM, first compound 0.0316 µM
[12] = second compound 0.1 µM, first compound 0.1 µM
[13] = second compound 0.1 µM, first compound 0.316 µM
[14] = second compound 0.1 µM, first compound 1 µM
[15] = second compound 0.1 µM, first compound 3.16 µM
[16] = second compound 0.1 µM, first compound 10 µM
[17] = second compound 0.316 µM, first compound 0.0316 µM
[18] = second compound 0.316 µM, first compound 0.1 µM
[19] = second compound 0.316 µM, first compound 0.316 µM
[20] = second compound 0.316 µM, first compound 1 µM
[21] = second compound 0.316 µM, first compound 3.16 µM
[22] = second compound 0.316 µM, first compound 10 µM
[23] = second compound 1 µM, first compound 0.0316 µM
[24] = second compound 1 µM, first compound 0.1 µM
[25] = second compound 1 µM, first compound 0.316 µM
[26] = second compound 1 µM, first compound 1 µM
[27] = second compound 1 µM, first compound 3.16 µM
[28] = second compound 1 µM, first compound 10 µM
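Also: spheroids exposed to agents for seven days before readout.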

In the case of `CCCS(=O)(=O)Nc1ccc(F)c(C(=O)c2c[nH]c3ncc(-c4ccc(Cl)cc4)cc23)c1F` + CC(Nc1ccc2c(c1)OCCn1cc(N3C(=O)OCC3C(F)F)nc1-2)C(N)=O, the IC50 (second compound 0.00316 µM) is reported as 5.17 µM, the IC50 (second compound 0.01 µM) is reported as 5.13 µM and the IC50 (second compound 0.0316 µM) is reported as 5.27 µM. It also gave an IC50 (second compound 0.1 µM) of 4.34 µM, an IC50 (second compound 0.316 µM) of 4.03 µM and an IC50 (second compound 1 µM) of 1.74 µM. For the same compound, the viability, T/C [1] was 102%, the viability, T/C [2] was 100% and the viability, T/C (second compound 0.00316 µM, first compound 0.316 µM) was 84.9%. The viability, T/C (second compound 0.00316 µM, first compound 1 µM) was 82.8%, the viability, T/C (second compound 0.00316 µM, first compound 3.16 µM) was 83.8% and the viability, T/C (second compound 0.00316 µM, first compound 10 µM) was 4.25%. For the same compound, the viability, T/C [3] was 101%, the viability, T/C [4] was 94.7% and the viability, T/C (second compound 0.01 µM, first compound 0.316 µM) was 81.8%. For the same compound, the viability, T/C (second compound 0.01 µM, first compound 1 µM) was 83.6%, the viability, T/C (second compound 0.01 µM, first compound 3.16 µM) was 83.4% and the viability, T/C (second compound 0.01 µM, first compound 10 µM) was 4.05%. The viability, T/C [5] was 92.3%, the viability, T/C [6] was 86% and the viability, T/C [7] was 85.5%. The viability, T/C [8] was 83%, the viability, T/C [9] was 87.2% and the viability, T/C [10] was 3.87%. The viability, T/C [11] was 88.5%, the viability, T/C [12] was 81.5% and the viability, T/C [13] was 89.1%. The viability, T/C [14] was 73%, the viability, T/C [15] was 70.2% and the viability, T/C [16] was 4.14%. The viability, T/C [17] was 86.7%, the viability, T/C [18] was 72.6% and the viability, T/C [19] was 63%. It also gave a viability, T/C [20] of 73.5%, a viability, T/C [21] of 62.5% and a viability, T/C [22] of 3.6%. It also gave a viability, T/C [23] of 74.4%, a viability, T/C [24] of 65.7% and a viability, T/C [25] of 70%. The viability, T/C [26] was 50.3%, the viability, T/C [27] was 46.6% and the viability, T/C [28] was 2.59%.
`C=CC(=O)N1CCN(c2nc(=O)n(-c3c(C)ccnc3C(C)C)c3nc(-c4c(O)cccc4F)c(F)cc23)C(C)C1` (stereo unspecified) + Cc1nc(NC(=O)N2CCCC2C(N)=O)sc1-c1ccnc(C(C)(C)C(F)(F)F)c1 gave an IC50 (second compound 0.0316 µM) greater than 10 µM, an IC50 (second compound 0.1 µM) greater than 10 µM and an IC50 (second compound 0.316 µM) greater than 10 µM. It also gave an IC50 (second compound 1 µM) greater than 10 µM, an IC50 (second compound 3.16 µM) greater than 10 µM and an IC50 (second compound 10 µM) greater than 10 µM. The viability, T/C [5] was 91%, the viability, T/C [6] was 102% and the viability, T/C [7] was 87.7%. It also gave a viability, T/C [8] of 96.5%, a viability, T/C [9] of 93.3% and a viability, T/C [10] of 73.9%. For the same compound, the viability, T/C [11] was 91.8%, the viability, T/C [12] was 96.8% and the viability, T/C [13] was 98.6%. For the same compound, the viability, T/C [14] was 99%, the viability, T/C [15] was 97.4% and the viability, T/C [16] was 61.7%. The viability, T/C [17] was 96.6%, the viability, T/C [18] was 96.7% and the viability, T/C [19] was 99.5%. The viability, T/C [20] was 85.2%, the viability, T/C [21] was 96.3% and the viability, T/C [22] was 73.5%. For the same compound, the viability, T/C [23] was 90.2%, the viability, T/C [24] was 83.4% and the viability, T/C [25] was 80.5%. For the same compound, the viability, T/C [26] was 73.6%, the viability, T/C [27] was 80.8% and the viability, T/C [28] was 63%. It also gave a viability, T/C (second compound 3.16 µM, first compound 0.0316 µM) of 74.9%, a viability, T/C (second compound 3.16 µM, first compound 0.1 µM) of 85.6% and a viability, T/C (second compound 3.16 µM, first compound 0.316 µM) of 67%. It also gave a viability, T/C (second compound 3.16 µM, first compound 1 µM) of 69.9%, a viability, T/C (second compound 3.16 µM, first compound 3.16 µM) of 72.8% and a viability, T/C (second compound 3.16 µM, first compound 10 µM) of 55.5%. It also gave a viability, T/C (second compound 10 µM, first compound 0.0316 µM) of 58.4%, a viability, T/C (second compound 10 µM, first compound 0.1 µM) of 61.2% and a viability, T/C (second compound 10 µM, first compound 0.316 µM) of 56.9%. The viability, T/C (second compound 10 µM, first compound 1 µM) was 68.3%, the viability, T/C (second compound 10 µM, first compound 3.16 µM) was 57.8% and the viability, T/C (second compound 10 µM, first compound 10 µM) was 40%.
For `CC(C)n1nc(-c2ccc3oc(N)nc3c2)c2c(N)ncnc21` + CC(Nc1ccc2c(c1)OCCn1cc(N3C(=O)OCC3C(F)F)nc1-2)C(N)=O, the IC50 (second compound 0.00316 µM) was greater than 0.1 µM, the IC50 (second compound 0.01 µM) was greater than 0.1 µM and the IC50 (second compound 0.0316 µM) was greater than 0.1 µM. The IC50 (second compound 0.1 µM) was 0.0958 µM, the IC50 (second compound 0.316 µM) was greater than 0.1 µM and the IC50 (second compound 1 µM) was 0.0544 µM. The viability, T/C (second compound 0.00316 µM, first compound 0.000316 µM) was 102%, the viability, T/C (second compound 0.00316 µM, first compound 0.001 µM) was 106% and the viability, T/C (second compound 0.00316 µM, first compound 0.00316 µM) was 98.2%. It also gave a viability, T/C (second compound 0.00316 µM, first compound 0.01 µM) of 95.6%, a viability, T/C [1] of 101% and a viability, T/C [2] of 59.9%. For the same compound, the viability, T/C (second compound 0.01 µM, first compound 0.000316 µM) was 109%, the viability, T/C (second compound 0.01 µM, first compound 0.001 µM) was 104% and the viability, T/C (second compound 0.01 µM, first compound 0.00316 µM) was 97.5%. For the same compound, the viability, T/C (second compound 0.01 µM, first compound 0.01 µM) was 91.6%, the viability, T/C [3] was 95.8% and the viability, T/C [4] was 57.3%. For the same compound, the viability, T/C (second compound 0.0316 µM, first compound 0.000316 µM) was 102%, the viability, T/C (second compound 0.0316 µM, first compound 0.001 µM) was 98.7% and the viability, T/C (second compound 0.0316 µM, first compound 0.00316 µM) was 91.9%. It also gave a viability, T/C (second compound 0.0316 µM, first compound 0.01 µM) of 91.2%, a viability, T/C [5] of 94.1% and a viability, T/C [6] of 50.2%. The viability, T/C (second compound 0.1 µM, first compound 0.000316 µM) was 102%, the viability, T/C (second compound 0.1 µM, first compound 0.001 µM) was 116% and the viability, T/C (second compound 0.1 µM, first compound 0.00316 µM) was 100%. It also gave a viability, T/C (second compound 0.1 µM, first compound 0.01 µM) of 91.2%, a viability, T/C [11] of 87.2% and a viability, T/C [12] of 47.6%. It also gave a viability, T/C (second compound 0.316 µM, first compound 0.000316 µM) of 84.9%, a viability, T/C (second compound 0.316 µM, first compound 0.001 µM) of 96.3% and a viability, T/C (second compound 0.316 µM, first compound 0.00316 µM) of 106%. The viability, T/C (second compound 0.316 µM, first compound 0.01 µM) was 81.7%, the viability, T/C [17] was 75.6% and the viability, T/C [18] was 51.9%. For the same compound, the viability, T/C (second compound 1 µM, first compound 0.000316 µM) was 89%, the viability, T/C (second compound 1 µM, first compound 0.001 µM) was 80.6% and the viability, T/C (second compound 1 µM, first compound 0.00316 µM) was 82.4%. The viability, T/C (second compound 1 µM, first compound 0.01 µM) was 68.8%, the viability, T/C [23] was 69.9% and the viability, T/C [24] was 32.6%.

From PubChem BioAssay AID1963979 (Molecular Pharmacology Branch, DTP, NCI, 2024)
